Assay results published in ChEMBL document CHEMBL4507298 (2021).

Columns and labels:
[1] = molecular target: Acetylcholinesterase (Homo sapiens) (UniProt P22303); test: Acetylcholinesterase (h) CEREP ligand profiling; settings: Compound concentration 10.0 uM
[2] = test system: Tyrosine-protein kinase ABL1 (Homo sapiens), P00519 [M351T]; settings: Compound concentration 1000.0 nM
[3] = molecular target: Dual specificity mitogen-activated protein kinase kinase 5 (Homo sapiens) (UniProt Q13163); settings: Compound concentration 1000.0 nM
[4] = molecular target: Glutamate [NMDA] receptor (Homo sapiens) (UniProt Q05586+Q12879+Q13224+O15399+O60391+Q14957+Q8TCU5); test: NMDA CEREP ligand profiling; type: protein-complex assay; settings: Compound concentration 10.0 uM
[5] = molecular target: Ribosyldihydronicotinamide dehydrogenase [quinone] (Homo sapiens) (UniProt P16083); test: (§1) ML2 (MT3) CEREP ligand profiling; settings: Compound concentration 10.0 uM
Sequence of Ribosyldihydronicotinamide dehydrogenase [quinone] (Homo sapiens) (P16083 whole entry): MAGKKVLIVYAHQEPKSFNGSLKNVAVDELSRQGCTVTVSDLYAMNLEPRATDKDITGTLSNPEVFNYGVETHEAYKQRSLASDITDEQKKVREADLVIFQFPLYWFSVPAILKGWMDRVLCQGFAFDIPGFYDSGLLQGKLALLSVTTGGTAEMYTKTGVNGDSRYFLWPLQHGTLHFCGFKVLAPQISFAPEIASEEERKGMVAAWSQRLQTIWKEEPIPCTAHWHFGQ

[6] = molecular target: Ribosyldihydronicotinamide dehydrogenase [quinone] (Homo sapiens, UniProt P16083); test: as §1
Sequence of Ribosyldihydronicotinamide dehydrogenase [quinone] (P16083 whole entry): as above

[7] = molecular target: Tyrosine-protein kinase BTK (Homo sapiens) (UniProt Q06187); settings: Compound concentration 1000.0 nM
[8] = molecular target: CYP2C9 (Homo sapiens, UniProt P11712); test: CYP2C9 inhibition CEREP ligand profiling; settings: compound concentration 10 uM
[9] = molecular target: Phosphodiesterase 3 (Homo sapiens, UniProt Q14432+Q13370); test: PDE3 (h) CEREP ligand profiling; type: protein assay
[10] = molecular target: Cyclin-dependent kinase 2 (Homo sapiens) (UniProt P24941); settings: Compound concentration 1000.0 nM
[11] = molecular target: Melatonin receptor type 1A (Homo sapiens) (UniProt P48039); test: ML1 CEREP ligand profiling; settings: Compound concentration 10.0 uM
Sequence of Melatonin receptor type 1A (Homo sapiens) (P48039 whole entry, looked up): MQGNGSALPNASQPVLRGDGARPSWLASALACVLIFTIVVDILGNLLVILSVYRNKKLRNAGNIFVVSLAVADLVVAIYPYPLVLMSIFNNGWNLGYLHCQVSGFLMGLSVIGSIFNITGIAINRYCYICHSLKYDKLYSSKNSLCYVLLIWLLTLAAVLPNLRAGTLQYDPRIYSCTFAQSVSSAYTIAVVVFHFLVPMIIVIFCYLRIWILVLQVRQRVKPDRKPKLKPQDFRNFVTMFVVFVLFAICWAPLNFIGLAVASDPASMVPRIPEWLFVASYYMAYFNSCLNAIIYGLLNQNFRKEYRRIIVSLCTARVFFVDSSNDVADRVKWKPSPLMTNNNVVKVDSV

[12] = molecular target: Maternal embryonic leucine zipper kinase (Homo sapiens) (UniProt Q14680); settings: Compound concentration 1000.0 nM
Sequence of Maternal embryonic leucine zipper kinase (Homo sapiens) (Q14680 whole entry, looked up): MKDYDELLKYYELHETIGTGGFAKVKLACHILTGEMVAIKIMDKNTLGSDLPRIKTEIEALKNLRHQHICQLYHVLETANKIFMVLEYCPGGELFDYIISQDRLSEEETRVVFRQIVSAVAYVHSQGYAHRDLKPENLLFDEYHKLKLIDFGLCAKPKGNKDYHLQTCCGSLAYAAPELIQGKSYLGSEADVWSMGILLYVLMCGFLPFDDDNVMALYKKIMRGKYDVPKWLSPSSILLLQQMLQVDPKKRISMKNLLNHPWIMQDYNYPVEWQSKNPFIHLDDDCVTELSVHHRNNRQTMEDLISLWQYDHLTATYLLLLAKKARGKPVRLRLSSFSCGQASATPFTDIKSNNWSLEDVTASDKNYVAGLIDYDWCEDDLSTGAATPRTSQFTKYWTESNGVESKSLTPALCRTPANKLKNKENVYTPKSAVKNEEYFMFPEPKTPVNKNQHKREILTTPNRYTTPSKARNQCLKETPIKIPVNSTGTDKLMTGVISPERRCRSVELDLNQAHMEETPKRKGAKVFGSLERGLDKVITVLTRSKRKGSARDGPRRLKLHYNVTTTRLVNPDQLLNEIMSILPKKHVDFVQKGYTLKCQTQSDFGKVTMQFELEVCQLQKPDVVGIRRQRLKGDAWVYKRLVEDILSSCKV

[13] = molecular target: Tyrosine 3-monooxygenase (Homo sapiens) (UniProt P07101); test: TH CEREP ligand profiling; settings: Compound concentration 10.0 uM
Sequence of Tyrosine 3-monooxygenase (Homo sapiens) (P07101 whole entry): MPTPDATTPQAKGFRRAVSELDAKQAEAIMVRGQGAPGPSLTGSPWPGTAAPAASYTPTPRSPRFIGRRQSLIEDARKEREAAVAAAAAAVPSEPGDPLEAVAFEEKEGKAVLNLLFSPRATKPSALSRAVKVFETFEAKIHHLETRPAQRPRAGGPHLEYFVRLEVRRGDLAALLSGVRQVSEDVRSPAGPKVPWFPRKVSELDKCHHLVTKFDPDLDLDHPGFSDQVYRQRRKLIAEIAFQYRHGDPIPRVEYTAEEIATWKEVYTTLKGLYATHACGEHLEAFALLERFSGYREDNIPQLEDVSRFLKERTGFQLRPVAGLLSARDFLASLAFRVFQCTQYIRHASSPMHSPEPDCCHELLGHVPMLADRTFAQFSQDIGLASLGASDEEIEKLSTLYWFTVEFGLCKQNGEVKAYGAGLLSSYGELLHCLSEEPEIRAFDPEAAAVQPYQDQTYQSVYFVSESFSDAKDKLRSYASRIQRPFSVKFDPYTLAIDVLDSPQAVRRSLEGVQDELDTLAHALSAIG

[14] = molecular target: Neuropeptide Y receptor type 1 (Homo sapiens) (UniProt P25929); test: Y1 (h) CEREP ligand profiling; settings: Compound concentration 10.0 uM
[15] = molecular target: Tyrosine-protein kinase Blk (Homo sapiens) (UniProt P51451); settings: Compound concentration 1000.0 nM
[16] = molecular target: Mitogen-activated protein kinase 14 (Homo sapiens) (UniProt Q16539); test: p38 alpha kinase (h) CEREP ligand profiling; settings: Compound concentration 10.0 uM
[17] = molecular target: Tyrosine-protein kinase JAK1 (Homo sapiens) (UniProt P23458); settings: Compound concentration 1000.0 nM
[18] = molecular target: Voltage-gated L-type calcium channel (verapamil site) (Homo sapiens, UniProt O60840+Q01668+Q13698+Q13936); test: Ca2+ channel (L, verapamil site) CEREP ligand profiling; type: protein assay; settings: compound concentration 10 uM
[19] = molecular target: CYP3A4 (Homo sapiens, UniProt P08684); test: CYP3A4 inhibition CEREP ligand profiling; settings: compound concentration 10 uM
[20] = molecular target: Rhodopsin kinase GRK7 (Homo sapiens) (UniProt Q8WTQ7); settings: Compound concentration 1000.0 nM
[21] = molecular target: NT-3 growth factor receptor (Homo sapiens) (UniProt Q16288); settings: Compound concentration 1000.0 nM
Sequence of NT-3 growth factor receptor (Homo sapiens) (Q16288 32-839 limits assumed): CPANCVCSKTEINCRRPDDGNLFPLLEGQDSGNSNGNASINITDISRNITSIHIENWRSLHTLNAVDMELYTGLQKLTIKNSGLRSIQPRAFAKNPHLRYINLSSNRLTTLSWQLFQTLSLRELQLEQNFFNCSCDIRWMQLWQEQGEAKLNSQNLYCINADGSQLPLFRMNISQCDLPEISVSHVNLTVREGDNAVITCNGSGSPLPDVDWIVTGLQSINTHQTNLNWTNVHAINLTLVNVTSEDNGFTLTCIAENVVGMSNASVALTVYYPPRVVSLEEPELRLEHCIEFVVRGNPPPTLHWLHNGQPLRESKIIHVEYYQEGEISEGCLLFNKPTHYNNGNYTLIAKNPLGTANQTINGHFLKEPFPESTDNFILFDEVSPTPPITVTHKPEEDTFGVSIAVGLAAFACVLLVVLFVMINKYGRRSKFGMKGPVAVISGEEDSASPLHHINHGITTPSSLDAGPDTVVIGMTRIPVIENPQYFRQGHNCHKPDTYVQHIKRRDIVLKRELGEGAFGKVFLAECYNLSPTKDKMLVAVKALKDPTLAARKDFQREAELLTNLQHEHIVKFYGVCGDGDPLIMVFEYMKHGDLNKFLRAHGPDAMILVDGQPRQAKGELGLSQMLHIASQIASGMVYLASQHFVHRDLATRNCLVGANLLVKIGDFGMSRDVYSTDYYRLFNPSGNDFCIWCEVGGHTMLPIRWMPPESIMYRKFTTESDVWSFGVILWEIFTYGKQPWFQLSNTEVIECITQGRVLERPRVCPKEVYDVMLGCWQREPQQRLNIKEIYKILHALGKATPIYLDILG

[22] = molecular target: Cysteinyl leukotriene receptor 1 (Homo sapiens) (UniProt Q9Y271); test: LTD4 (h) (CysLT1) CEREP ligand profiling; settings: Compound concentration 10.0 uM
Sequence of Cysteinyl leukotriene receptor 1 (Homo sapiens) (Q9Y271 whole entry): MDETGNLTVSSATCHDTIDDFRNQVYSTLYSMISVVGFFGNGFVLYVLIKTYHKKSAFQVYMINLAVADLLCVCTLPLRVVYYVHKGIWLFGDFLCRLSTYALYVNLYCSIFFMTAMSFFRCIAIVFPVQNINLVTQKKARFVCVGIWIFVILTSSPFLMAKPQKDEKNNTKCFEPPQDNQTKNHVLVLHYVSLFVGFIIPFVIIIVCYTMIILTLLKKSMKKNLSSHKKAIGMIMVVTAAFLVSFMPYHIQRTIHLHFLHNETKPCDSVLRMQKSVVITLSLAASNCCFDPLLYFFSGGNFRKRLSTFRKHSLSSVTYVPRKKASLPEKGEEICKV

[23] = molecular target: Angiotensin-converting enzyme (Homo sapiens) (UniProt P12821); test: ACE (h) CEREP ligand profiling; settings: Compound concentration 10.0 uM
[24] = molecular target: T1, Alpha-2A adrenergic receptor (Homo sapiens) (UniProt P08913); test: alpha 2A (h) CEREP ligand profiling; settings: Compound concentration 10.0 uM
T1 sequence (whole entry): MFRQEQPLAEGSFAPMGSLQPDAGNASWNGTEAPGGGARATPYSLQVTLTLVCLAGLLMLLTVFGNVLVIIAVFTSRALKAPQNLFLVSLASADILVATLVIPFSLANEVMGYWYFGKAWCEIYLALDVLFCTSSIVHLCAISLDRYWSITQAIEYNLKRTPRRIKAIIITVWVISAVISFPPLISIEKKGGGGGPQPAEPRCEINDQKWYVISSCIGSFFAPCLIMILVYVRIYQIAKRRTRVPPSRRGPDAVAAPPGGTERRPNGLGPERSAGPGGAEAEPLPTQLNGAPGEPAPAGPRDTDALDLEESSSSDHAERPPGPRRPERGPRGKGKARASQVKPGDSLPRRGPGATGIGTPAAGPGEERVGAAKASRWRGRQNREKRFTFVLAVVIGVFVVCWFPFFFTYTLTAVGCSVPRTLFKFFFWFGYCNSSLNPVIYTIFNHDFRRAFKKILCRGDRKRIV

[25] = molecular target: Serine/threonine-protein kinase NLK (Homo sapiens) (UniProt Q9UBE8); settings: Compound concentration 1000.0 nM
[26] = molecular target: Serine/threonine-protein kinase 38-like (Homo sapiens) (UniProt Q9Y2H1); settings: Compound concentration 1000.0 nM
Sequence of Serine/threonine-protein kinase 38-like (Homo sapiens) (Q9Y2H1 2-464 limits assumed): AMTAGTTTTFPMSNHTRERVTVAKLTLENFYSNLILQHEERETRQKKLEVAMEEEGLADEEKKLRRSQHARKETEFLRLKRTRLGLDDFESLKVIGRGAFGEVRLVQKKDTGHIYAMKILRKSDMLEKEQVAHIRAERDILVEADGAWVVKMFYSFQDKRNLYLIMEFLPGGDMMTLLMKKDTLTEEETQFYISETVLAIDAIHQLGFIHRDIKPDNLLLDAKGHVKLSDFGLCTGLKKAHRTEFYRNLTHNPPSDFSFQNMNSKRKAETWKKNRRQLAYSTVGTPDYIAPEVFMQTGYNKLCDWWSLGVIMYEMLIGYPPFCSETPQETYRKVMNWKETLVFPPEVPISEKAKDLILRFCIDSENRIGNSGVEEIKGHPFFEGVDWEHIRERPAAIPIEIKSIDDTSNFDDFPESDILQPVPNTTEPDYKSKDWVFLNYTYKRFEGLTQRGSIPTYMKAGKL

[27] = molecular target: Receptor-interacting serine/threonine-protein kinase 4 (Homo sapiens) (UniProt P57078); settings: Compound concentration 1000.0 nM
[28] = molecular target: Ephrin type-A receptor 3 (Homo sapiens) (UniProt P29320); settings: Compound concentration 1000.0 nM
Sequence of Ephrin type-A receptor 3 (Homo sapiens) (P29320 whole entry): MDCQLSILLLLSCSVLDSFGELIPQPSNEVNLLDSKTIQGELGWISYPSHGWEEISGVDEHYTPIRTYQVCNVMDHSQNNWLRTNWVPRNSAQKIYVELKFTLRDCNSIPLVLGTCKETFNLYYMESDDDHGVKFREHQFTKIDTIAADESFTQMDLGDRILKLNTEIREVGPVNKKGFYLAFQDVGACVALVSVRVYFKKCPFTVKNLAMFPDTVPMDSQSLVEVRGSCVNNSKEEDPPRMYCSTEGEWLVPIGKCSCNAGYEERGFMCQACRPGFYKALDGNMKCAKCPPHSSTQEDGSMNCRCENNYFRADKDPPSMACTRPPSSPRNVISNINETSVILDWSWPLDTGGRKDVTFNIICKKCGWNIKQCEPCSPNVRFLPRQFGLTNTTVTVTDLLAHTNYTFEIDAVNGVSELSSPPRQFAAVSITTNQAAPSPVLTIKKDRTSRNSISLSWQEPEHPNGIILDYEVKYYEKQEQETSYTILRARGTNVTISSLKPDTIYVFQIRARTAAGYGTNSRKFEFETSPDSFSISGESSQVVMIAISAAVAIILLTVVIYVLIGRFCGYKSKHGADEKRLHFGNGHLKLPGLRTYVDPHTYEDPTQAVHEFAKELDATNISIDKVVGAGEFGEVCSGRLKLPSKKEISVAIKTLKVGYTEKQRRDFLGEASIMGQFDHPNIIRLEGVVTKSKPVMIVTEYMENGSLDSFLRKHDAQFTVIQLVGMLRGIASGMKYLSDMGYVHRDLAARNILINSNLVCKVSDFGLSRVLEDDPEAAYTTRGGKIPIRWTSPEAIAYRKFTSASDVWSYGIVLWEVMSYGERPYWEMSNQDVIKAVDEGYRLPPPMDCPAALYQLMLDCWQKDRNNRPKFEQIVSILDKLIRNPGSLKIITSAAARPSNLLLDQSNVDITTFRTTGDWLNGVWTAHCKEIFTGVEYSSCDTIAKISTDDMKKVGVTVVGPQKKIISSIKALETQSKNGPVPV

[29] = test system: Leucine-rich repeat serine/threonine-protein kinase 2 (Homo sapiens), Q5S007 [G2019S]; settings: Compound concentration 1000.0 nM
[30] = molecular target: Insulin receptor-related protein (Homo sapiens) (UniProt P14616); settings: Compound concentration 1000.0 nM
[31] = molecular target: Serine/threonine-protein kinase 16 (Homo sapiens) (UniProt O75716); settings: Compound concentration 1000.0 nM
[32] = molecular target: Mitogen-activated protein kinase kinase kinase 12 (Homo sapiens) (UniProt Q12852); settings: Compound concentration 1000.0 nM
[33] = molecular target: Proto-oncogene tyrosine-protein kinase ROS (Homo sapiens) (UniProt P08922); settings: Compound concentration 1000.0 nM
[34] = molecular target: Cytoplasmic tyrosine-protein kinase BMX (Homo sapiens) (UniProt P51813); settings: Compound concentration 1000.0 nM
[35] = molecular target: GABA-A receptor; anion channel (Homo sapiens) (UniProt P14867+P47870+P18507+P28472+P48169+Q99928+Q9UN88+P34903+O00591+O14764+Q8N1C3+P18505+P78334+P47869+P31644+Q16445); test: GABAA BZD (central) CEREP ligand profiling; type: protein-complex assay; settings: Compound concentration 10.0 uM
[36] = molecular target: Tyrosine-protein kinase ZAP-70 (Homo sapiens) (UniProt P43403); settings: Compound concentration 1000.0 nM
Sequence of Tyrosine-protein kinase ZAP-70 (Homo sapiens) (P43403 whole entry): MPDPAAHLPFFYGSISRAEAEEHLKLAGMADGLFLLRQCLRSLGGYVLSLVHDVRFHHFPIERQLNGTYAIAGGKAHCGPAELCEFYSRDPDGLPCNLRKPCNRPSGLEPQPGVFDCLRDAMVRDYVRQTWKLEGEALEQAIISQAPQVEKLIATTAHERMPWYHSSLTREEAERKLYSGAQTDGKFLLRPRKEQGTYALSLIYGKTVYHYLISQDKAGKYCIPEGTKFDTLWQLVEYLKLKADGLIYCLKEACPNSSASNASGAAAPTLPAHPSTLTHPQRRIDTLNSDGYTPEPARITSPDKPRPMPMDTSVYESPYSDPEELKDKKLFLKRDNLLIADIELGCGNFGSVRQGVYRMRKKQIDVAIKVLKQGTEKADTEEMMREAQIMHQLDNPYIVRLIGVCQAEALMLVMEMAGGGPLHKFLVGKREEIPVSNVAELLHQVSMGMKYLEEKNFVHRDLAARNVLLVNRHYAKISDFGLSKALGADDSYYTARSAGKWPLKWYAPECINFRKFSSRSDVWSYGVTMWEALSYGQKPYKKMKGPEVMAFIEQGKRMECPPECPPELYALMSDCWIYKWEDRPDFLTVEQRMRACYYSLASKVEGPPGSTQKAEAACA

[37] = molecular target: CYP2D6 (Homo sapiens, UniProt P10635); test: CYP2D6 inhibition CEREP ligand profiling; settings: compound concentration 10 uM
[38] = molecular target: Bone morphogenetic protein receptor type-2 (Homo sapiens) (UniProt Q13873); settings: Compound concentration 1000.0 nM

Q: What does the source list for `COc1ccc2cc(OCC3(C(=O)O)CN(C(=O)c4ccc(F)cc4)C3)ccc2c1` [PF-04418948]?
A: inhibition [1]: 45%; residual activity [2]: 87%; residual activity [3]: 93%; inhibition [4]: 1%; inhibition [5]: 93%; IC50 [6]: 530 nM; Ki [6]: 520 nM; residual activity [7]: 84%; inhibition at 10 µM [8]: 41% (not active); IC50 [9]: 3500 nM; inhibition ([9]; Compound concentration 10.0 uM): 78%; residual activity [10]: 91%; inhibition [11]: -3%; residual activity [12]: 86%; inhibition [13]: -10%; inhibition [14]: 1%; residual activity [15]: 93%; inhibition [16]: -1%; residual activity [17]: 93%; inhibition at 10 µM [18]: -5% (not active); inhibition at 10 µM [19]: 17% (not active); residual activity [20]: 93%; residual activity [21]: 98%; inhibition [22]: 2%; inhibition [23]: 14%; inhibition [24]: 26%; residual activity [25]: 94%; residual activity [26]: 86%; residual activity [27]: 66%; residual activity [28]: 92%; residual activity [29]: 84%; residual activity [30]: 67%; residual activity [31]: 88%; residual activity [32]: 97%; residual activity [33]: 81%; residual activity [34]: 87%; inhibition [35]: 10%; residual activity [36]: 99%; inhibition at 10 µM [37]: 18% (not active); residual activity [38]: 87%
